Results as given in paper doi:10.1101/2025.03.18.644008v1 (biorxiv, 2025).

Target: T1, LPA3 receptor (Homo sapiens, UniProt Q9UBY5)
T1 sequence (Q9UBY5 1-353): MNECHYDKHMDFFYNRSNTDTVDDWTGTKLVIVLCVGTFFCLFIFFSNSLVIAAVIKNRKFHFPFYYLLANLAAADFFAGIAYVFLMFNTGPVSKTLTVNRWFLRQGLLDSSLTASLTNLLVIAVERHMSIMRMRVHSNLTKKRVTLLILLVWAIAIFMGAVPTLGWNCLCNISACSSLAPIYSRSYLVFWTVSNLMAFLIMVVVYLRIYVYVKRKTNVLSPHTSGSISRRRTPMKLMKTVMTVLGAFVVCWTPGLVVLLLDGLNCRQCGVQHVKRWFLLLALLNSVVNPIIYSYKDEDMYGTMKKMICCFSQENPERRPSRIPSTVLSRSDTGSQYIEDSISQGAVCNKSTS
Experiment: intracellular calcium, Fura-2 AM, induced HEK […] Flp-In TREx cells
Format: cell-based

| SMILES | EC50 |
| --- | --- |
| CCCCCCCC/C=C\CCCCCCCC(=O)OC[C@@H](COP(O)(O)=S)OC [OMPT] | ~0.06 µM |
| Fc1ccc([C@@H]2CCNC[C@H]2COc2ccc3c(c2)OCO3)cc1 [paroxetine] | ~30 µM |
